# Source: PubChem BioAssay AID2060900 (Molecular Pharmacology Branch, DTP, NCI, 2025)
# Tested on: 521955-158-R2-J5-PDC complex spheroids, viability
# Experiment: Anticancer human tumor 521955-158-R2-J5-PDC patient-derived pancreatic carcinoma cell line growth inhibition [RAS]
# Conditions: for IC50: curve of first compound; for viability, T/C: stronger effect = lower value
# Procedure, shortened: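 Multi-cell-type spheroids: tumor cells plus HUVEC endothelial cells and mesenchymal stem cells. RAS-pathway inhibitors were combined with targeted agents, each dosed in half-log steps down from clinical Cmax, or from 10 microM when Cmax was unknown.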
# [1] = second compound 0.000949 µM, first compound 0.00316 µM
# [2] = second compound 0.000949 µM, first compound 0.01 µM
# [3] = second compound 0.000949 µM, first compound 0.0316 µM
# [4] = second compound 0.000949 µM, first compound 0.1 µM
# [5] = second compound 0.000949 µM, first compound 0.316 µM
# [6] = second compound 0.000949 µM, first compound 1 µM
# [7] = second compound 0.003 µM, first compound 0.00316 µM
# [8] = second compound 0.003 µM, first compound 0.01 µM
# [9] = second compound 0.003 µM, first compound 0.0316 µM
# [10] = second compound 0.003 µM, first compound 0.1 µM
# [11] = second compound 0.003 µM, first compound 0.316 µM
# [12] = second compound 0.003 µM, first compound 1 µM
# [13] = second compound 0.00949 µM, first compound 0.00316 µM
# [14] = second compound 0.00949 µM, first compound 0.01 µM
# [15] = second compound 0.00949 µM, first compound 0.0316 µM
# [16] = second compound 0.00949 µM, first compound 0.1 µM
# [17] = second compound 0.00949 µM, first compound 0.316 µM
# [18] = second compound 0.00949 µM, first compound 1 µM
# [19] = second compound 0.03 µM, first compound 0.00316 µM
# [20] = second compound 0.03 µM, first compound 0.01 µM
# [21] = second compound 0.03 µM, first compound 0.0316 µM
# [22] = second compound 0.03 µM, first compound 0.1 µM
# [23] = second compound 0.03 µM, first compound 0.316 µM
# [24] = second compound 0.03 µM, first compound 1 µM
# [25] = second compound 0.0949 µM, first compound 0.00316 µM
# [26] = second compound 0.0949 µM, first compound 0.01 µM
# [27] = second compound 0.0949 µM, first compound 0.0316 µM
# [28] = second compound 0.0949 µM, first compound 0.1 µM
# [29] = second compound 0.0949 µM, first compound 0.316 µM
# [30] = second compound 0.0949 µM, first compound 1 µM
# [31] = second compound 0.3 µM, first compound 0.00316 µM
# [32] = second compound 0.3 µM, first compound 0.01 µM
# [33] = second compound 0.3 µM, first compound 0.0316 µM
# [34] = second compound 0.3 µM, first compound 0.1 µM
# [35] = second compound 0.3 µM, first compound 0.316 µM
# [36] = second compound 0.3 µM, first compound 1 µM
# 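Note: compound exposure lasted seven days before the viability read.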
# 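Throughout, for viability, T/C: spheroids also contain HUVEC endothelial cells and mesenchymal stem cells as stroma.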
smiles,measurement,setting,value
C=CC(=O)Nc1cc(Nc2nccc(-c3cn(C)c4ccccc34)n2)c(OC)cc1N(C)CCN(C)C + CCn1c(-c2cccnc2C(C)OC)c2c3cc(ccc31)N1CCOC(CC(NC(=O)C(C(C)C)N(C)C(=O)C3(F)CCN(C(=O)C#CC(C)(C)N(C)C)CC3)C(=O)N3CCCC(N3)C(=O)OCC(C)(C)C2)C1,IC50,second compound 0.000949 µM,504 nM
same,IC50,second compound 0.003 µM,755 nM
same,IC50,second compound 0.00949 µM,493 nM
same,IC50,second compound 0.03 µM,416 nM
same,IC50,second compound 0.0949 µM,441 nM
same,IC50,second compound 0.3 µM,176 nM
same,"viability, T/C",[1],89.9%
same,"viability, T/C",[2],84.1%
same,"viability, T/C",[3],84.1%
same,"viability, T/C",[4],72.6%
same,"viability, T/C",[5],59%
same,"viability, T/C",[6],37.1%
same,"viability, T/C",[7],110%
same,"viability, T/C",[8],82.6%
same,"viability, T/C",[9],71.8%
same,"viability, T/C",[10],65.3%
same,"viability, T/C",[11],59.2%
same,"viability, T/C",[12],44.1%
same,"viability, T/C",[13],101%
same,"viability, T/C",[14],91.5%
same,"viability, T/C",[15],88.6%
same,"viability, T/C",[16],75.4%
same,"viability, T/C",[17],61.4%
same,"viability, T/C",[18],34.1%
same,"viability, T/C",[19],88.6%
same,"viability, T/C",[20],79.2%
same,"viability, T/C",[21],80%
same,"viability, T/C",[22],70.8%
same,"viability, T/C",[23],51.8%
same,"viability, T/C",[24],41%
same,"viability, T/C",[25],86.3%
same,"viability, T/C",[26],95.8%
same,"viability, T/C",[27],70%
same,"viability, T/C",[28],70.2%
same,"viability, T/C",[29],56.6%
same,"viability, T/C",[30],36.9%
same,"viability, T/C",[31],70.2%
same,"viability, T/C",[32],79.2%
same,"viability, T/C",[33],72%
same,"viability, T/C",[34],55.4%
same,"viability, T/C",[35],45.3%
same,"viability, T/C",[36],36.9%
C=CC(=O)N1CCN(c2nc(OCC3CCCN3C)nc3c(F)c(-c4nc(N)cc(C)c4C(F)(F)F)c(Cl)cc23)C(C)C1 (stereo unspecified) + CCn1c(-c2cc(N3CCN(C)CC3)cnc2C(C)OC)c2c3cc(ccc31)-c1csc(n1)CC(NC(=O)C1CC1C)C(=O)N1CCCC(N1)C(=O)OCC(C)(C)C2,IC50,second compound 0.000949 µM,< 3.16 nM
same,IC50,second compound 0.003 µM,< 3.16 nM
same,IC50,second compound 0.00949 µM,< 3.16 nM
same,IC50,second compound 0.03 µM,< 3.16 nM
same,IC50,second compound 0.0949 µM,< 3.16 nM
same,IC50,second compound 0.3 µM,< 3.16 nM
same,"viability, T/C",[1],42.5%
same,"viability, T/C",[2],43.1%
same,"viability, T/C",[3],45.9%
same,"viability, T/C",[4],45.9%
same,"viability, T/C",[5],57.7%
same,"viability, T/C",[6],41%
same,"viability, T/C",[7],39.4%
same,"viability, T/C",[8],36.5%
same,"viability, T/C",[9],46.7%
same,"viability, T/C",[10],49.3%
same,"viability, T/C",[11],39.9%
same,"viability, T/C",[12],49.5%
same,"viability, T/C",[13],35%
same,"viability, T/C",[14],35.4%
same,"viability, T/C",[15],44.3%
same,"viability, T/C",[16],29.6%
same,"viability, T/C",[17],42%
same,"viability, T/C",[18],36.1%
same,"viability, T/C",[19],17.1%
same,"viability, T/C",[20],19%
same,"viability, T/C",[21],22.6%
same,"viability, T/C",[22],20.2%
same,"viability, T/C",[23],30.7%
same,"viability, T/C",[24],18.6%
same,"viability, T/C",[25],16.1%
same,"viability, T/C",[26],11.4%
same,"viability, T/C",[27],11.9%
same,"viability, T/C",[28],13.9%
same,"viability, T/C",[29],15.1%
same,"viability, T/C",[30],11.9%
same,"viability, T/C",[31],10.8%
same,"viability, T/C",[32],10.2%
same,"viability, T/C",[33],11.3%
same,"viability, T/C",[34],12.5%
same,"viability, T/C",[35],15.9%
same,"viability, T/C",[36],9.71%
C[C@@H](NC(=O)c1ncnc(N)c1Cl)c1ncc(C(=O)Nc2cc(C(F)(F)F)c(Cl)cn2)s1 + CCn1c(-c2cccnc2C(C)OC)c2c3cc(ccc31)N1CCOC(CC(NC(=O)C(C(C)C)N(C)C(=O)C3(F)CCN(C(=O)C#CC(C)(C)N(C)C)CC3)C(=O)N3CCCC(N3)C(=O)OCC(C)(C)C2)C1,IC50,second compound 0.000949 µM,5930 nM
same,IC50,second compound 0.003 µM,> 10000 nM
same,IC50,second compound 0.00949 µM,> 10000 nM
same,IC50,second compound 0.03 µM,10000 nM
same,IC50,second compound 0.0949 µM,> 10000 nM
same,IC50,second compound 0.3 µM,1510 nM
same,"viability, T/C",[3],137%
same,"viability, T/C",[4],100%
same,"viability, T/C",[5],84.3%
same,"viability, T/C",[6],70.1%
same,"viability, T/C","second compound 0.000949 µM, first compound 3.16 µM",55.1%
same,"viability, T/C","second compound 0.000949 µM, first compound 10 µM",53.1%
same,"viability, T/C",[9],111%
same,"viability, T/C",[10],121%
same,"viability, T/C",[11],85.6%
same,"viability, T/C",[12],73.2%
same,"viability, T/C","second compound 0.003 µM, first compound 3.16 µM",64.2%
same,"viability, T/C","second compound 0.003 µM, first compound 10 µM",56.1%
same,"viability, T/C",[15],118%
same,"viability, T/C",[16],94.8%
same,"viability, T/C",[17],89%
same,"viability, T/C",[18],60.1%
same,"viability, T/C","second compound 0.00949 µM, first compound 3.16 µM",70.7%
same,"viability, T/C","second compound 0.00949 µM, first compound 10 µM",63.6%
same,"viability, T/C",[21],91.1%
same,"viability, T/C",[22],126%
same,"viability, T/C",[23],69.1%
same,"viability, T/C",[24],59.6%
same,"viability, T/C","second compound 0.03 µM, first compound 3.16 µM",68.6%
same,"viability, T/C","second compound 0.03 µM, first compound 10 µM",48%
same,"viability, T/C",[27],122%
same,"viability, T/C",[28],99%
same,"viability, T/C",[29],79.6%
same,"viability, T/C",[30],56.7%
same,"viability, T/C","second compound 0.0949 µM, first compound 3.16 µM",60.4%
same,"viability, T/C","second compound 0.0949 µM, first compound 10 µM",58.8%
same,"viability, T/C",[33],131%
same,"viability, T/C",[34],98%
same,"viability, T/C",[35],71.6%
same,"viability, T/C",[36],46.8%
same,"viability, T/C","second compound 0.3 µM, first compound 3.16 µM",48.1%
same,"viability, T/C","second compound 0.3 µM, first compound 10 µM",46.1%
